# In ChEMBL document CHEMBL1201862, “PubChem BioAssay data set” (2004):
# “And” between values parts separate entries of the source, which are not always exact repeats. Equal entries are not always repeated.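 Step 1: Grow cells in 96-well plates. Step 2: Expose to compound for 48 hours at 5 concentrations. Step 3: Interpolate endpoints linearly; if unreached, use highest concentration. At the GI50, growth is halved.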 The source made the active and inactive calls. No stated cut-off is given here; in the data, active = GI50 up to about 1.1 µM and inactive = higher.
# Columns and labels:
# Test in all cases: inhibition of tumour cell growth, NCI panel, 48 h
# A498 = test system: A498
# A549 = test system: A549
# HOP-92 = test system: HOP-92
# MOLT-4 = test system: MOLT-4
# OVCAR-5 = test system: OVCAR-5
# RPMI-8226 = test system: RPMI-8226
# SF-539 = test system: SF-539
# SK-MEL-28 = test system: SK-MEL-28
# SK-MEL-5 = test system: SK-MEL-5
# SNB-75 = test system: SNB-75
# TK-10 = test system: TK-10
# HCT-116 = test system: HCT-116
# OVCAR-4 = test system: OVCAR-4
# SR = test system: SR
SMILES,GI50 (A498),GI50 (A549),GI50 (HOP-92),GI50 (MOLT-4),GI50 (OVCAR-5),GI50 (RPMI-8226),GI50 (SF-539),GI50 (SK-MEL-28),GI50 (SK-MEL-5),GI50 (SNB-75),GI50 (TK-10),GI50 (HCT-116),GI50 (OVCAR-4),GI50 (SR)
Cc1nc(-n2nc(-c3ccccc3)cc2-c2ccccc2)sc1C(=O)/C=C/c1ccc(Cl)cc1,23.2 µM (inactive),19.5 µM (inactive),18.4 µM (inactive),11.7 µM (inactive),34.8 µM (inactive),5.66 µM (inactive),14.3 µM (inactive),16.9 µM (inactive),13.2 µM (inactive),6.1 µM (inactive),38.1 µM (inactive),–,–,–
CCOC(=O)C(=O)C1C(=O)Nc2ccccc21 (configuration not stated),> 100 µM (inactive),> 100 µM (inactive),50.8 µM (inactive),> 100 µM (inactive),> 100 µM (inactive),> 100 µM (inactive),–,> 100 µM (inactive),–,> 100 µM (inactive),> 100 µM (inactive),> 100 µM (inactive),> 100 µM (inactive),–
COc1cc2c(c(OC)c1OC)-c1ccc(SC)c(=O)cc1C(CO)C2 (configuration not stated),0.107 µM (active),0.22 µM (active),0.451 µM (active),0.596 µM (active),0.431 µM (active),< 0.01 µM (active),0.143 µM (active),0.0735 µM (active),0.172 µM (active),0.0326 µM (active),–,0.12 µM (active),0.769 µM (active),0.0203 µM (active)
[N-]=[N+]=NC(c1cn(C2CC(O)C(CO)O2)c(=O)[nH]c1=O)C(I)I (configuration not stated),> 100 µM (inactive),> 100 µM (inactive),> 100 µM (inactive),> 100 µM (inactive),> 100 µM (inactive),> 100 µM (inactive),> 100 µM (inactive),> 100 µM (inactive),> 100 µM (inactive),–,> 100 µM (inactive),> 100 µM (inactive),75.7 µM (inactive),> 100 µM (inactive)
O=CC(O)C(O)C(O)COc1cc(CO)cc2c1C(=O)c1ccccc1C2=O (configuration not stated),> 100 µM (inactive),> 100 µM (inactive),> 100 µM (inactive),> 100 µM (inactive),> 100 µM (inactive),> 100 µM (inactive),> 100 µM (inactive),> 100 µM (inactive),79.4 µM (inactive),> 100 µM (inactive),> 100 µM (inactive),> 100 µM (inactive),> 94.2 µM (inactive),> 88.3 µM (inactive)
C/C(=N\NC(=O)c1ccccc1O)C1=CNc2ccccc2S1,3.8 µM (inactive),3.63 µM (inactive),–,2.08 µM (inactive),3.18 µM (inactive),4.9 µM (inactive),2.4 µM (inactive),9.48 µM (inactive),6.89 µM (inactive),8.2 µM (inactive),5.57 µM (inactive),3.66 µM (inactive),5.85 µM (inactive),3.82 µM (inactive)
Cn1ncc(=S)[nH]c1=S,> 100 µM (inactive),> 100 µM (inactive),> 100 µM (inactive),> 100 µM (inactive),> 100 µM (inactive),> 100 µM (inactive),> 100 µM (inactive),> 100 µM (inactive),–,97.7 µM (inactive),> 100 µM (inactive),> 100 µM (inactive),> 100 µM (inactive),–
CCCCCn1cnc2c1S(=O)(=O)N(C)C(NC(=O)c1ccccc1)=N2,> 100 µM (inactive),> 100 µM (inactive),> 100 µM (inactive),> 100 µM (inactive),–,> 100 µM (inactive),> 100 µM (inactive),> 100 µM (inactive),> 100 µM (inactive),> 100 µM (inactive),> 100 µM (inactive),> 100 µM (inactive),> 100 µM (inactive),> 100 µM (inactive)
CN(C)C(=N)NC(N)=S,> 100 µM (inactive),> 100 µM (inactive),> 100 µM (inactive),> 100 µM (inactive),> 100 µM (inactive),> 100 µM (inactive),> 100 µM (inactive),> 100 µM (inactive),–,> 100 µM (inactive),> 100 µM (inactive),> 100 µM (inactive),> 100 µM (inactive),> 100 µM (inactive)
COc1ccc(N2C(=O)c3c(c4[nH]c5ccccc5c4c4ccc(C(C)(C)C)cc34)C2=O)cc1,40.5 µM (inactive),47.1 µM (inactive),14.7 µM (inactive),21.6 µM (inactive),> 100 µM (inactive),–,> 100 µM (inactive),89.1 µM (inactive),> 100 µM (inactive),16.6 µM (inactive),51.4 µM (inactive),69.7 µM (inactive),20.3 µM (inactive),21.2 µM (inactive)
CCOc1ccccc1NC(=O)CCc1n[nH]c(=S)o1,–,> 100 µM (inactive),> 100 µM (inactive),> 100 µM (inactive),–,> 100 µM (inactive),> 100 µM (inactive),> 100 µM (inactive),> 100 µM (inactive),> 100 µM (inactive),> 100 µM (inactive),> 100 µM (inactive),–,> 100 µM (inactive)
Cc1cccc(-c2nnc(S)[nH]2)c1,> 100 µM (inactive),> 100 µM (inactive),> 100 µM (inactive),89.5 µM (inactive),> 100 µM (inactive),> 100 µM (inactive),> 100 µM (inactive),> 100 µM (inactive),> 100 µM (inactive),> 100 µM (inactive),> 100 µM (inactive),> 100 µM (inactive),> 100 µM (inactive),> 100 µM (inactive)
Cc1cccc(C)c1NC(=O)C(=O)Cc1nc2ccccc2s1,> 100 µM (inactive),> 100 µM (inactive),> 100 µM (inactive),–,> 100 µM (inactive),> 100 µM (inactive),> 100 µM (inactive),> 100 µM (inactive),> 100 µM (inactive),27.5 µM (inactive),> 100 µM (inactive),> 100 µM (inactive),> 100 µM (inactive),–
O=c1[nH]c2c(nc1NC13CC4CC(CC(C4)C1)C3)c(=O)oc1ccccc12,–,34 µM (inactive),> 100 µM (inactive),> 100 µM (inactive),> 100 µM (inactive),> 100 µM (inactive),14.9 µM (inactive),> 100 µM (inactive),36.9 µM (inactive),29.5 µM (inactive),> 100 µM (inactive),> 100 µM (inactive),–,> 100 µM (inactive)
CCOC(=O)C1Oc2ccc([N+](=O)[O-])cc2C1(C)O (configuration not stated),> 100 µM (inactive),> 100 µM (inactive),> 100 µM (inactive),> 100 µM (inactive),> 100 µM (inactive),> 100 µM (inactive),> 100 µM (inactive),> 100 µM (inactive),> 100 µM (inactive),> 100 µM (inactive),> 100 µM (inactive),–,> 100 µM (inactive),> 100 µM (inactive)
CCOC(OC1=C(C#N)CCC1)C(CC)[Se]c1ccccc1 (configuration not stated),80.4 µM (inactive),63.1 µM (inactive),23.4 µM (inactive),16.8 µM (inactive),22.7 µM (inactive),17.9 µM (inactive),19 µM (inactive),40.9 µM (inactive),15 µM (inactive),24.2 µM (inactive),> 100 µM (inactive),26.2 µM (inactive),16.1 µM (inactive),7.19 µM (inactive)
C=CCOC1=C2CC[C@H](O)[C@@]2(C)CCC1=O,> 100 µM (inactive),> 100 µM (inactive),> 100 µM (inactive),> 100 µM (inactive),> 100 µM (inactive),> 100 µM (inactive),> 100 µM (inactive),> 100 µM (inactive),> 100 µM (inactive),> 100 µM (inactive),> 100 µM (inactive),> 100 µM (inactive),> 100 µM (inactive),> 100 µM (inactive)
O=S1(=O)c2ccccc2N=C(c2ccccc2Cl)CC1c1ccc(F)cc1 (configuration not stated),17.5 µM (inactive),20 µM (inactive),17.7 µM (inactive),13.7 µM (inactive),15.7 µM (inactive),3.4 µM (inactive),20.3 µM (inactive),18.2 µM (inactive),16.5 µM (inactive),25.5 µM (inactive),22.5 µM (inactive),10.8 µM (inactive),18.4 µM (inactive),–
CC(=O)OCC1OC(n2c(=S)n(-c3ccccc3)c(=O)c3cc(Br)ccc32)C(OC(C)=O)C(OC(C)=O)C1OC(C)=O (configuration not stated),> 100 µM (inactive),> 100 µM (inactive),–,> 100 µM (inactive) and 94.6 µM (inactive),> 100 µM (inactive),> 100 µM (inactive),> 100 µM (inactive),> 100 µM (inactive),> 100 µM (inactive),–,–,–,–,–
Cc1noc(C)c1C1=CCCCc2ccccc21,–,> 100 µM (inactive),26.5 µM (inactive),25.7 µM (inactive),> 100 µM (inactive),25.9 µM (inactive),> 100 µM (inactive),> 100 µM (inactive),34.1 µM (inactive),23.4 µM (inactive),–,> 100 µM (inactive),> 100 µM (inactive),16.6 µM (inactive)
CC1=Nn2c(nnc2-c2ccccc2Cl)NC(C)(C)C1,–,> 100 µM (inactive),> 100 µM (inactive),47.3 µM (inactive),> 100 µM (inactive),26.1 µM (inactive),> 100 µM (inactive),> 100 µM (inactive),> 100 µM (inactive),> 100 µM (inactive),> 100 µM (inactive),> 100 µM (inactive),> 100 µM (inactive),25.5 µM (inactive)
